Ends that are not written are not given here.

Assay [1] deals with human peripheral blood mononuclear cells (MCP-1). Put plainly: SPOT-synthesized derivative screen: production of chemokine MCP-1. The class given is cell-based. The conditions noted are these: Table 12, No LPS, human PBMC, peptide at ~18-24 μM; for MCP1: background subtracted 139 (HH2 derivatives), 170 (1018 derivatives), 242 (1002 and hybrid peptides) pg/ml. A digest of the protocol: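 PBMC from heparinized healthy-donor venous blood, Ficoll-separated, cultured at 0.75 to 1×10^6 cells/ml, 37 °C, 5% CO2, under the treatment regimens. MCP-1 in cell-free supernatants measured by capture ELISA.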

For assay [2], the system named is methicillin resistant Staphylococcus aureus (MRSA) biofilm. The conditions noted are these: approximate peptide concentration […] (around 3 μg/ml); compared to untreated samples. An outline of the steps: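 Static biofilm assay: 1/100 dilutions of overnight cultures grown in BM2 medium (pH 7, glucose, Casamino Acids) or Luria Broth with peptide added at time zero. After 22–46 h, adherent biofilm was stained with crystal violet and read at 595 nm. Some peptides were also tested on K. pneumoniae under flow in a Bioflux system.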

Assay [3] has as its system LPS-stimulated human peripheral blood mononuclear cells (IL1-β). The class given is cell-based. The conditions noted are these: Table 12, cells stimulated with 10 ng/ml LPS; for IL1β Production: LPS alone 1313 (HH2 derivatives), 1927 (1018 derivatives), 2455 (1002 and hybrid peptides) pg/ml.

On to “1018-I12: single substituted 1018 peptide (VRLIVAVRIWRI-NH2) [Peptide 1018-I12]”, for which, in assay [1], the “Fold increase in MCP1 cf. untreated cells” value (shortened to “Fold increase”) is listed as 19 and the “MCP1” value stood at 3003 pg/mL. Besides, the “% Biofilm inhibition” value in assay [2] is given as 57%. For the same substance, in assay [3], the “Fold change in IL1β relative to no peptide LPS stimulated cells” value is reported as 0.24 and the “IL1β Production” value is 314 pg/mL.
The corresponding values for “1018-K1: single substituted 1018 peptide (KRLIVAVRIWRR-NH2) [Peptide 1018-K1]” are 1.2, 40 pg/mL, 49%, 0.13 and 173 pg/mL.
Take “1018-K2: single substituted 1018 peptide (VKLIVAVRIWRR-NH2) [Peptide 1018-K2]”: in assay [1], the “Fold increase” value was 1.5 and the “MCP1” value amounted to 92 pg/mL. In assay [2], the “% Biofilm inhibition” value was found to be 68%. In assay [3], the “Fold change in IL1β relative to no peptide LPS stimulated cells” value is listed as 0.10 and the “IL1β Production” value came out at 127 pg/mL.
Taken in the same sequence, the figures for “1018-K3: single substituted 1018 peptide (VRKIVAVRIWRR-NH2) [Peptide 1018-K3]” were 49, 8203 pg/mL, 15%, 1.13 and 1489 pg/mL.
The corresponding values for “1018-K4: single substituted 1018 peptide (VRLKVAVRIWRR-NH2) [Peptide 1018-K4]” are 1.2, 40 pg/mL, 41%, 0.30 and 393 pg/mL.
Taken in the same sequence, the figures for “1018-K5: single substituted 1018 peptide (VRLIKAVRIWRR-NH2) [Peptide 1018-K5]” were 0.9, -10 pg/mL, 29%, 1.31 and 1722 pg/mL.
Turning to “1018-K7: single substituted 1018 peptide (VRLIVAKRIWRR-NH2) [Peptide 1018-K7]”, in assay [1], the “Fold increase” value worked out at 1.5 and the “MCP1” value turned out to be 92 pg/mL. Moreover, in assay [2], the “% Biofilm inhibition” value is 23%. Besides, in assay [3], the “Fold change in IL1β relative to no peptide LPS stimulated cells” value is 0.93 and the “IL1β Production” value was 1222 pg/mL.
The corresponding values for “1018-K8: single substituted 1018 peptide (VRLIVAVKIWRR-NH2) [Peptide 1018-K8]” are 8.3, 1237 pg/mL, 65%, 0.18 and 242 pg/mL.
The corresponding values for “1018-K9: single substituted 1018 peptide (VRLIVAVRKWRR-NH2) [Peptide 1018-K9]” are 1.1, 15 pg/mL, 60%, 0.23 and 300 pg/mL.
Taken in the same sequence, the figures for “1018-K10: single substituted 1018 peptide (VRLIVAVRIKRR-NH2) [Peptide 1018-K10]” were 3.3, 390 pg/mL, 63%, 0.24 and 310 pg/mL.
Regarding “1018-K11: single substituted 1018 peptide (VRLIVAVRIWKR-NH2) [Peptide 1018-K11]”, in assay [1], the “Fold increase” value is on record as 9.3 and the “MCP1” value was 1419 pg/mL. Further, in assay [2], the “% Biofilm inhibition” value is given as 68%. In assay [3], the “Fold change in IL1β relative to no peptide LPS stimulated cells” value came to 0.13 and the “IL1β Production” value came out at 170 pg/mL.
Taken in the same sequence, the figures for “1018-K12: single substituted 1018 peptide (VRLIVAVRIWRK-NH2) [Peptide 1018-K12]” were 4.1, 531 pg/mL, 67%, 0.10 and 127 pg/mL.
For “1018-L1: single substituted 1018 peptide (LRLIVAVRIWRR-NH2) [Peptide 1018-L1]”, in assay [1], the “Fold increase” value is reported as 4.1 and the “MCP1” value stood at 531 pg/mL. Moreover, the “% Biofilm inhibition” value in assay [2] is 72%. Further, in assay [3], the “Fold change in IL1β relative to no peptide LPS stimulated cells” value amounted to 0.21 and the “IL1β Production” value worked out at 282 pg/mL.
The corresponding values for “1018-L2: single substituted 1018 peptide (VLLIVAVRIWRR-NH2) [Peptide 1018-L2]” are 0.8, -35 pg/mL, 61%, 0.32 and 426 pg/mL.
The corresponding values for “1018-L4: single substituted 1018 peptide (VRLLVAVRIWRR-NH2) [Peptide 1018-L4]” are 0.9, -10 pg/mL, 64%, 0.10 and 127 pg/mL.
With “1018-L5: single substituted 1018 peptide (VRLILAVRIWRR-NH2) [Peptide 1018-L5]”, in assay [1], the “Fold increase” value came out at 3.0 and the “MCP1” value came out at 335 pg/mL. For the same substance, in assay [2], the “% Biofilm inhibition” value came to 71%. In assay [3], the “Fold change in IL1β relative to no peptide LPS stimulated cells” value stood at 0.12 and the “IL1β Production” value turned out to be 162 pg/mL.
Taken in the same sequence, the figures for “1018-L6: single substituted 1018 peptide (VRLIVLVRIWRR-NH2) [Peptide 1018-L6]” were 0.7, -60 pg/mL, 69%, 0.26 and 340 pg/mL.
The corresponding values for “1018-L7: single substituted 1018 peptide (VRLIVALRIWRR-NH2) [Peptide 1018-L7]” are 0.9, -10 pg/mL, 72%, 0.10 and 132 pg/mL.
Turning to “1018-L8: single substituted 1018 peptide (VRLIVAVLIWRR-NH2) [Peptide 1018-L8]”, in assay [1], the “Fold increase” value is listed as 0.5 and the “MCP1” value was -83 pg/mL. For the same substance, in assay [2], the “% Biofilm inhibition” value was 40%. In assay [3], the “Fold change in IL1β relative to no peptide LPS stimulated cells” value amounted to 0.42 and the “IL1β Production” value is 553 pg/mL.
The corresponding values for “1018-L9: single substituted 1018 peptide (VRLIVAVRLWRR-NH2) [Peptide 1018-L9]” are 1.4, 66 pg/mL, 52%, 0.13 and 171 pg/mL.
With “1018-L10: single substituted 1018 peptide (VRLIVAVRILRR-NH2) [Peptide 1018-L10]”, in assay [1], the “Fold increase” value amounted to 0.7 and the “MCP1” value was -60 pg/mL. Moreover, the “% Biofilm inhibition” value in assay [2] is recorded as 38%. In assay [3], the “Fold change in IL1β relative to no peptide LPS stimulated cells” value amounted to 0.10 and the “IL1β Production” value worked out at 127 pg/mL.
Taken in the same sequence, the figures for “1018-L11: single substituted 1018 peptide (VRLIVAVRIWLR-NH2) [Peptide 1018-L11]” were 1.7, 118 pg/mL, 4%, 1.12 and 1467 pg/mL.
Taken in the same sequence, the figures for “1018-L12: single substituted 1018 peptide (VRLIVAVRIWRL-NH2) [Peptide 1018-L12]” were 1.2, 29 pg/mL, 44%, 0.17 and 220 pg/mL.
The corresponding values for “1018-Q1: single substituted 1018 peptide (QRLIVAVRIWRR-NH2) [Peptide 1018-Q1]” are 3.1, 363 pg/mL, 46%, 0.12 and 158 pg/mL.
